{
  "source": "patent US9328118B2",
  "about": "“Nitrogen-containing bicyclic aromatic heterocyclic compound” (ASTELLAS PHARMA INC., priority 2012, dated 2016)",
  "note": "Counter-ions that a name gives are not always drawn.",
  "data": [
    {"target": "human cathepsin S (Homo sapiens (Human), UniProt P25774)", "sequence (P25774 115-331)": "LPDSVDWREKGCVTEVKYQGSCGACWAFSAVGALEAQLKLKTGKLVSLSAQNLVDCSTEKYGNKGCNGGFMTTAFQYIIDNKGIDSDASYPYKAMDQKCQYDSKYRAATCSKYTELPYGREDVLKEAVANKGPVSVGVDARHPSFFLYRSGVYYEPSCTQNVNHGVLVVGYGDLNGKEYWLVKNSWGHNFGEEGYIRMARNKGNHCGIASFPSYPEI", "assay": "In vitro human cathepsin S inhibitory activity (VVR-AMC fluorescence)", "format": "biochemical", "details": "human cathepsin S enzyme, substrate VVR-AMC 40 μM, pH 4.5, 37° C.; read-out: IC50 value of the human cathepsin S inhibitory activity (Data 1)", "experimental": "Test Example 1 Measurement of a In Vitro Human Cathepsin S Inhibitory Activity\n5 μL of a human cathepsin S enzyme (R&D1183-CY-010) was added to a 96-well plate so as to be 20 ng/well. […] A reaction rate at the time of not adding an enzyme in which the test compound was not added and a reaction rate at the time of adding an enzyme in which the test compound was not added were set to 100% inhibition and 0% inhibition, respectively, then, an inhibition rate at each concentration was determined, and IC50 values were calculated by a linear regression method. In the Table, Ex represents Example compound No., and Data 1 represents an IC50 value (nM) of the human cathepsin S inhibitory activity.", "units": {"IC50": "nM"}, "values": [
      {"smiles": "CCOc1ccc(-c2nc(C#N)nc3c2ccn3CC(=O)N2CCN(C)CC2)cc1C(F)(F)F", "note": "[Example 5, 4-[4-ethoxy-3-(trifluoromethyl)phenyl]-7-[2-(4-methylpiperazin-1-yl)-2-oxoethyl]-7H-pyrrolo[2,3-d]pyrimidine-2-carbonitrile]", "IC50": 4.2},
      {"smiles": "CN(C)C(=O)N1CCC(CCOc2ccc(-c3nc(C#N)nc4c3ncn4C)cc2C(F)(F)F)CC1", "note": "[Example 7, 4-{2-[4-(2-cyano-9-methyl-9H-purin-6-yl)-2-(trifluoromethyl)phenoxy]ethyl}-N,N-dimethylpiperidine-1-carboxamide]", "IC50": 6.2},
      {"smiles": "CN1CCN(C(=O)Cn2ccc3c(-c4ccc(OCCC5CCOCC5)c(C(F)(F)F)c4)nc(C#N)nc32)CC1", "note": "[Example 8, 7-[2-(4-methylpiperazin-1-yl)-2-oxoethyl]-4-{4-[2-(tetrahydro-2H-pyran-4-yl)ethoxy]-3-(trifluoromethyl)phenyl}-7H-pyrrolo[2,3-d]pyrimidine-2-carbonitrile monohydrochloride]", "IC50": 1.6},
      {"smiles": "Cc1nc2c(-c3ccc(OCCC4CCNCC4)c(C(F)(F)F)c3)nc(C#N)nc2n1C", "note": "[Example 10, 8,9-dimethyl-6-{4-[2-(piperidin-4-yl)ethoxy]-3-(trifluoromethyl)phenyl}-9H-purine-2-carbonitrile monohydrochloride]", "IC50": 2.7},
      {"smiles": "CCN1CCC(CCOc2ccc(-c3nc(C#N)nc4c3nc(C)n4C)cc2C(F)(F)F)CC1", "note": "[Example 11, 6-{4-[2-(1-ethylpiperidin-4-yl)ethoxy]-3-(trifluoromethyl)phenyl}-8,9-dimethyl-9H-purine-2-carbonitrile]", "IC50": 1.9},
      {"smiles": "CCN1CCCC(CCOc2ncc(-c3nc(C#N)nc4c3ccn4C)cc2C(F)(F)F)C1", "note": "(centres unmarked) [Example 12, 4-{6-[2-(1-ethylpiperidin-3-yl)ethoxy]-5-(trifluoromethyl)pyridin-3-yl}-7-methyl-7H-pyrrolo[2,3-d]pyrimidine-2-carbonitrile monohydrochloride]", "IC50": 2.7},
      {"smiles": "CCN1CCC(CCOc2ccc(-c3nc(C#N)nc4c3ccn4CCOC)cc2C(F)(F)F)CC1", "note": "[Example 13, 4-{4-[2-(1-ethylpiperidin-4-yl)ethoxy]-3-(trifluoromethyl)phenyl}-7-(2-methoxyethyl)-7H-pyrrolo[2,3-d]pyrimidine-2-carbonitrile monohydrochloride]", "IC50": 2.7},
      {"smiles": "Cn1ccc2c(-c3ccc(OCCC4CCN(C5CC5)CC4)c(C(F)(F)F)c3)nc(C#N)nc21", "note": "[Example 14, 4-{4-[2-(1-cyclopropylpiperidin-4-yl)ethoxy]-3-(trifluoromethyl)phenyl}-7-methyl-7H-pyrrolo[2,3-d]pyrimidine-2-carbonitrile]", "IC50": 2.3},
      {"smiles": "CN(C)C(=O)CN1CCC(CCOc2ccc(-c3nc(C#N)nc4c3ccn4CC3CCCO3)cc2C(F)(F)F)CC1", "note": "(centres unmarked) [Example 16, 2-[4-(2-{4-[2-cyano-7-(tetrahydrofuran-2-ylmethyl)-7H-pyrrolo[2,3-d]pyrimidin-4-yl]-2-(trifluoromethyl)phenoxy}ethyl)piperidin-1-yl]-N,N-dimethylacetamide monohydrochloride]", "IC50": 4.7},
      {"smiles": "Cn1ccc2c(-c3ccc(OCCC4C5CCC4CNC5)c(C(F)(F)F)c3)nc(C#N)nc21", "note": "(centres unmarked) [Example 38]", "IC50": 4.5},
      {"smiles": "CN1CCC(CCOc2ncc(-c3nc(C#N)nc4c3ncn4C)cc2C(F)(F)F)CC1", "note": "[Example 136, 9-methyl-6-{6-[2-(1-methylpiperidin-4-yl)ethoxy]-5-(trifluoromethyl)pyridin-3-yl}-9H-purine-2-carbonitrile]", "IC50": 1.5},
      {"smiles": "Cn1cnc2c(-c3cnc(OCCC4CCN(C(=O)[C@@H]5CCCN5)CC4)c(C(F)(F)F)c3)nc(C#N)nc21", "note": "[Example 138]", "IC50": 2.7},
      {"smiles": "CC(C)N1CCC(CCOc2ncc(-c3nc(C#N)nc4c3ncn4C)cc2C(F)(F)F)CC1", "note": "[Example 139]", "IC50": 2.1},
      {"smiles": "Cn1cnc2c(-c3cnc(OCCC4CCN5CCCC5C4)c(C(F)(F)F)c3)nc(C#N)nc21", "note": "(centres unmarked) [Example 142]", "IC50": 1.5}
    ]}
  ]
}
